Test results taken from patent publication US11241501B2, “Anticancer prodrug for overcoming drug resistance” (Korea University Research and Business Foundation, priority 2018, dated 2022).

Assays:
[1] = tested on: HepG2 cells; experiment: Confocal intracellular localization with MitoTracker; assay type: cell-based, human; conditions: HepG2, 5 μM, 24 hr
Method: HepG2 cells treated with each compound (5 μM, 24 hr) were co-stained with the mitochondrial marker MitoTracker (green). Boxed regions show co-localization of the test compounds and probe within the mitochondria. […] Experiments were carried out in triplicate and the data shown represent means±SD. **p<0.01. […] HepG2 cells were incubated with BNPP (100 μM) for 2 hr prior to C1 treatment. **p<0.01. […] Cleaved caspase-3 and PARP-1 levels were examined to assess apoptosis induction. C, cleaved.
Cells were seeded on glass chamber slides (Nalgene Nunc) followed by probe treatment. After 48 h, the cells were fixed with 4% formaldehyde, and blocked with 2% bovine serum albumin-PBS for 30 min. The mitochondria were stained using MitoTracker™ Green FM (Invitrogen, USA) for 30 min. Fluorescent images were obtained using a confocal laser scanning microscope (Carl Zeiss MicroImaging, Inc., Germany).

[2] = Cell fractionation assay, mitochondria-to-nucleus trafficking; assay type: cell-based; conditions: after treatment with C1
Method: (§1) Fluorescence intensities were measured with SpectraMAX 13. Data represent means±SD. **p<0.01. […] Data represent means±SD. **[…]. […] Data represent the mean±SD (n=3 experimental replicates). *p<0.05, **p<0.01. […] MCF7/Dox cells were treated with C1 or C3 as indicated, and the cytosolic (C) and mitochondrial (M) fractions were subjected to immunoblot assay. COX-IV and tubulin were used as markers for the mitochondria and cytosol fractions, respectively.
Separation of cytosolic and mitochondrial fractions was performed using the Mitochondria Isolation Kit (Thermo Scientific, USA). Briefly, the cells were washed with cold PBS and lysed by 5-cycle freeze-thawing in Mitochondria Isolation Reagent A buffer, containing 10 mM phenylmethylsulfonyl fluoride (PMSF). After incubation on ice for 10 min and the addition of Mitochondria Isolation Reagent B buffer, the lysates were centrifuged at 700×g for 10 min following inverting by treating with Mitochondria Isolation Reagent C buffer. The supernatant was transferred to a new tube, centrifuged at 12 000×g for 15 min at 4° C., and collected as the cytosolic fraction. After adding […] of Mitochondria Isolation Reagent C, the pellet was centrifuged at 12 000×g for 5 min and collected as the mitochondrial fraction.

[3] = tested on: MCF7/Dox cells; experiment: Cytochrome c release from mitochondria, immunoblot; assay type: cell-based, human
Method: as §1
Immunoblot analyses were performed using antibodies specific for phosphorylated serine 293 PDH-EI (ab92696), p21^Waf1 (sc-397), cleaved PARP (5625), cleaved caspase-3 (9664), COX-IV (4850), and Cytochrome c (4280). They were purchased from Abcam (Cambridge, UK), Santa Cruz Biotechnology (Texas, USA) or Cell Signaling Technology (Massachusetts, USA). Anti-tubulin antibodies were obtained from Sigma-Aldrich (St. Louis, USA). Briefly, cells were washed twice in ice-cold PBS and lysed in a radioimmunoprecipitation assay buffer containing 50 mM Tris/HCl (pH 7.5), 150 mM NaCl, 0.1% sodium dodecyl sulfate (SDS), 1% Triton X-100, 1% sodium deoxycholate, and protease inhibitor mixture. After sonification, the lysate was centrifuged, and the supernatant was recovered and loaded onto a 12% SDS-polyacrylamide gel for electrophoresis. […]

[4] = tested on: carboxylesterase; experiment: Carboxylesterase activation, fluorescence response and Dox release; assay type: biochemical
Method: The change in fluorescence intensity is directly related to active Dox release from C1.
FIG. 8 is a bar diagram representing the fluorescence intensity of C1 (5 μM) recorded at 570 nm after 4 h incubation in the presence or absence of carboxylesterase (1 U/ml), and various biological analytes, including amino acids (100 μM), thiols (10 mM, each), and reactive oxygen species (ROS) (200 μM, each) (Excitation at 470 nm). 1) C1 only, 2) L-proline, 3) L-ascorbic acid, 4) L-glutamic acid, 5) nicotinamide adenine dinucleotide (NADH), 6) pepsin, 7) acetylcholinesterase (AChE), 8) butyrylcholinesterase (BChE), 9) L-glutathione, 10) H2O2, 11) hypochlorite ion (OCl^−) 12) C1+esterase;
The maximal fluorescence intensity was recorded after 4 h. […] Note: The change in fluorescence intensity is considered to be proportional to the quantity of active Dox release from […]. […]
To gain further insight into the preliminary stability and activation of conjugates containing DCA, Dox, and a TPP cation targeting entity, both the target conjugate C1 and the control system C3 (an analog of C1 lacking the chloromethyl groups present in DCA; cf. FIG. 1) were prepared. […] Further support for the release of free Dox under these conditions came from time-dependent fluorescence experiments, HPLC, and liquid chromatography-mass spectrometry (FIG. 2B and FIG. 2C, and FIG. 7). […]

[5] = tested on: MCF7/Dox cells; experiment: Intracellular ATP, lactate levels and glucose uptake; assay type: cell-based, human
Method: as §1
Intracellular ATP levels were measured using an ATP Bioluminescence Assay Kit HSII (Roche Applied Science). Briefly, after the indicated treatment times for the test compound in question, cells were lysed with boiling lysis reagent and the supernatant was collected. […] of luciferin/Luciferase reagents. Luminescence was measured using Luminoskan Ascent (Thermo Scientific). Results were normalized to cell number. Intracellular L(+)-lactate level was measured using a lactate assay kit (BioVision). Cells were suspended with lactate assay buffer and incubated in the presence of the reaction mixture for 30 min. The lactate was quantified by measuring the absorbance at 570 nm using a Bio-Rad 680 microplate reader (Bio-Rad). For the glucose uptake assay, 2×10^5 cells were incubated in the presence of 20 mmol/L of 2-NBDG (2-[N-(7-nitrobenz-2-oxa-1,3-diazol-4-yl)amino]-2-deoxy-d-glucose; N13195; Invitrogen) for 2 h. The cells were re-suspended in cold growth medium and stained with propidium iodide. Samples were maintained on ice and analyzed via flow cytometry (Becton Dickinson).

[6] = tested on: MCF7/Dox cells; experiment: Assessment of mitochondrial membrane potential (CLSM); assay type: cell-based, human; conditions: 5 μM, 48 h
Method: To assess the mitochondrial membrane potential, MCF-7/Dox cells (5×10^3 cells) were seeded in glass-bottomed dishes and treated with 5 μM compound C1, C3, DCA, and/or doxorubicin for 48 h. After incubation, the cells were stained with 2 ml of a PBS solution containing 20 μM Mitoview™ 633 (Biotium, USA) and 100 nM Hoechst® 33342 (ThermoFisher, USA) for 30 min at 37° C. with 5% CO2. Fluorescence was detected using a Zeiss LSM 700 confocal laser scanning microscope (Carl Zeiss).

**Q.** For COc1cccc2c1C(=O)c1c(O)c3c(c(O)c1C2=O)C[C@@](O)(C(=O)CO)C[C@@H]3OC1C[C@H](NC(=O)OC(Cc2cn(CCCCCC[P+](c3ccccc3)(c3ccccc3)c3ccccc3)nn2)c2ccc(NC(=O)C(Cl)Cl)cc2)[C@H](O)[C@H](C)O1.[Br-] (stereo partly drawn) [C1], which “intracellular (mitochondrial) localization” value [1] is on record?
**A.** located predominantly within the mitochondria

**Q.** What about the “time for released Dox to translocate to the nucleus” value [2] of the same molecule?
**A.** approximately 2 hr

**Q.** What about the “cytochrome c release, cleavage of caspase-3 and PARP-1, decrease in cell viability” value [3] of the same molecule?
**A.** induces cytochrome c release from the mitochondria

**Q.** And the “fluorescence response to various amino acids, enzymes and biomolecules versus esterase” value ([4]; 590 nm emission, 4 h incubation)?
**A.** large fluorescence enhancements in the 590 nm emission feature were observed upon treatment with the esterase but not in its absence

**Q.** What about the “response to carboxylesterase (bond scission, Dox release)” value ([4]; carboxylesterase 1 U/mL, PBS, 37° C.) of the same molecule?
**A.** scission of the aniline-amide bond and release of Dox

**Q.** What about the glucose uptake [5] of the same molecule?
**A.** decreased glucose uptake

**Q.** What about the “intracellular ATP levels” value [5] of the same molecule?
**A.** lowered intracellular ATP levels

**Q.** And the intracellular lactate levels [5]?
**A.** dose-dependent reduction of intracellular lactate levels

**Q.** And the “decrease in mitochondrial membrane potential Δψm” value [6]?
**A.** ca. 96%
